In a melting point compilation (Tetko et al.; mined from patent text by program, amines drawn as free bases though some values may be those of a salt):

| SMILES | melting point [°C] |
| --- | --- |
| COc1cc2ncc(C#N)c(Nc3ccc(F)c(Cl)c3)c2cc1NC(=O)C=CCN1C(C)CCC1C (stereo not given) | 110 to 113 |
| O=C(NC1CC=CCC1)NS(=O)(=O)c1ccc2c(c1)CCN(C(=O)N1CCCC1)CC2 (stereo not given) | 211 to 212 |
| CC1CC(Nc2ccc(F)cc2)c2cc(F)ccc2N1 (stereo not given) | 120 to 122 |
| COC1(c2cc(F)cc(Sc3ccc(/C(C)=N/O)c(O)c3)c2)CCOCC1 | 140 to 142 |
| Fc1ccc(Cn2c(NC3CCN(CCNC(=S)N4CCCCC4)CC3)nc3ccccc32)cc1 | 176 |
| Cc1cccc(C(=NO)c2ccc(OCCOc3ccc(C(=NO)c4cccc(C)c4)cc3)cc2)c1 | 151 to 153 |
| CC(=O)Nc1nc(CN2CCC(c3c[nH]c4ccccc34)CC2)cs1 | 204 to 207 |
| CCCCCCCCCCCCC1N(C)c2cccc3cccc(c23)N1C | 30 to 32 |
| NS(=O)(=O)c1ccc(CNC(=O)c2ccccc2SSc2ccccc2C(=O)NCc2ccc(S(N)(=O)=O)cc2)cc1 | 267 to 269 |
| COCNC(=O)OC(C(=O)OC)P(C)(C)=O (stereo not given) | 101 |
| CN(Cc1ccc(NC(=O)C2=Cc3cc(-c4ccc(OC5CCOCC5)cc4)ccc3S(=O)(=O)CC2)cc1)C1CCOCC1 | 227 to 229 |
| O=C1NCCc2ccccc2N1OCCCCN1CCN(c2cccc(C3CC3)n2)CC1 | 155 to 156 |
| CC=Cc1c(-c2ccc(C(C)(C)C)cc2)[nH]c2nccnc12 | 207 to 208 |
| CC(C)CC(=O)Nc1cccc(-c2ccnc3c(Br)cnn23)c1 | 132 to 134 |
| O=C(c1ccc2c(c1)OCC(CN1CCOCC1)N2)N1CCOCC1 (stereo not given) | 125 to 126 |
| O=C1NC(=O)C(c2ccc3cc(-c4ccc(O)c(C56CC7CC(CC(C7)C5)C6)c4)ccc3c2)S1 (stereo not given) | 312 to 314 |
| CC1(C)COC(C(=O)O)OC1 | 58 to 60 |
| NC(Cn1cncn1)(Cn1cncn1)c1ccc(Cl)cc1Cl | 135 to 136 |
| COc1cc(C(=O)ON=C(C)N)cc([N+](=O)[O-])c1OC | 165 to 166 |
| OC(c1ccccc1)(c1ccccc1)c1ccncc1 | 238 to 240 |
| Cn1c2ccccc2c2c3ccc(Cl)cc3c(=O)[nH]c21 | > 310 |

| SMILES | melting point [°C] |
| --- | --- |
| CCCC(CCC)n1nnc2c(Cl)nc(C)nc21 | 92 to 93 |
| Nc1ccc(SCC2CCC2)cc1[N+](=O)[O-] | 49 to 53 |
| CC(C)C1=C(C#N)C(c2cccc(N3CCOCC3)c2)c2c[nH]nc2N1 (stereo not given) | 254 to 257 |
| Cc1nc(C)c(Cl)c(NCc2nccc(OCCCCN3CCN(Cc4ccncc4)CC3)c2C)n1 | 157 to 158 |
| NC(=O)c1ccc(N[C@H]2CC[C@H](N)CC2)cc1F | 166 to 167 |
| O=c1[nH]c(=O)c2cc(N3CCCCC3)ccc2[nH]1 | > 280 |
| C[C@]12CCC(=O)N[C@@H]1CCc1cc(-c3ccc([N+](=O)[O-])cn3)ccc12 | 123 to 124 |
| Cc1sc(-c2ccccc2)nc1COc1cc(COc2ncccc2C#N)on1 | 135 to 136 |
| O=C(O)c1ccc(OC(F)F)c2oc3ccc(C(F)(F)F)cc3c12 | 280 |
| COc1nc2cc(C)c(C)c(N)c2nc1OC | 166 to 167 |
| NC(=O)NN=Cc1ccc(OC2CCOCC2)cc1 | 208 to 209 |
| CC(C)(C)NC(=S)Nc1cc(F)cc(Cl)c1 | 135 to 137 |
| CCc1c2nc(-c3cc(S(C)(=O)=O)ccc3OCC(C)C)[nH]c(=O)c2nn1C1CCN(C)CC1 | 292 to 295 |
| COc1ccc(NC(C)=O)c(Sc2ccc(C#N)cc2[N+](=O)[O-])c1 | 195 to 199 |
| CCCCCc1ccc(OCC(O)CC#CCCCC(=O)O)cc1 (stereo not given) | 54 to 57 |
| CS(=O)(=O)c1ccc(-c2cnn(-c3ccc(F)c(F)c3)c(=O)c2CCC=C2CC2)cc1 | 128 to 129 |
| CCN([C@H]1CC[C@H](c2ccc3[nH]c(=O)oc3c2)CC1)[C@H](C)CCc1ccccc1 | 139 to 158 |
| C=CCOc1cc(-n2ncc(C(F)(F)F)c(C)c2=O)c(F)cc1Cl | 79.8 |
| COc1cccc(N(CC(=O)N(C)c2ccccc2)C(=O)CN2C(=O)c3ccccc3C2=O)c1 | 137 |
| O=C(Oc1ccccc1)C1=C(O)CCn2c1nc1ccccc12 | 176 to 178 |
| COC(=O)c1ccc(CN2CC2C#N)c(OC)n1 (stereo not given) | 156 to 158 |

| SMILES | melting point [°C] |
| --- | --- |
| COc1cccc(OC)c1-c1cc(C(=O)NC2(C(=O)O)C3CC4CC(C3)CC2C4)nn1-c1ccc(C(=O)NC2CC(C)(C)NC(C)(C)C2)cc1C(C)C (stereo not given) | 270 to 272 |
| CCCN(c1ccc(C(F)(F)F)cc1)c1nc(=O)c2cccnc2s1 | 216 to 217 |
| CCN(c1ccc([N+](=O)[O-])cc1[N+](=O)[O-])S(=O)(=O)c1ccc(C)cc1 | 135 to 136 |
| COc1cc2c(cc1OCc1ccccc1)CC(C)(C)N=C2C | 87.9 to 90 |
| O=C1c2cccc(O)c2C(=O)c2ccsc21 | 199 to 200 |
| O=C(c1ccc(C2CCCCC2)cc1)[C@H]1C[C@H]1C(=O)O (relative stereo) | 162 to 163 |
| O=C(CCCCCN1CCN(c2cccc3c2CCCC3)CC1)N1Cc2ccccc2C1 | 115 |
| Cc1ccc2c(c1)CCCN2CC(NS(=O)(=O)c1c(Cl)cc(Cl)cc1Cl)C(C)C (stereo not given) | 144 to 145 |
| CCCc1nc2c(N)nc3cccnc3c2n1CCOCCON=C(C)C | 127 to 128 |
| Oc1cc(C2CC2)[nH]n1 | 213 to 215 |
| O=C(N1CCC(n2c(=O)[nH]c3ncccc32)CC1)n1ccnc1 | 226 |
| Cc1c(CCO)c2cc(OCc3csc(-c4ccccc4)n3)ccc2n1Cc1ccccc1 | 114 to 116 |
| Cc1cc(-c2nnc3c4ccccc4c(OCc4ncn(C(C)C)n4)nn23)no1 | 179 to 181 |
| O=C1c2cccc3cc([N+](=O)[O-])cc(c23)C(=O)N1OCc1ccccc1 | 239 to 241 |
| N#CN1CCN(c2nn(S(=O)(=O)c3ccccc3)c3cc(F)ccc23)CC1 | 178 to 180 |
| O=CC1=CCC(C=CC(=O)O)C=C1 (stereo not given) | 134 to 138 |
| Cn1c(=O)c2ccsc2n(CC2CC2)c1=O | 75 to 77 |
| C=CCN(c1ccc(Cl)cc1[N+](=O)[O-])S(=O)(=O)c1ccc(C)cc1 | 77 to 78 |
| CCCCSc1ccc(C2CC(=O)C(C(=O)CC)=C(O)C2)cc1[N+](=O)[O-] (stereo not given) | 102 |
| CSC(=NC(=O)c1ccccc1)N1CC=C(c2cccc(C(F)(F)F)c2)n2ncc(C(N)=O)c21 | 172 to 175 |

The remaining lines, values ahead:

| melting point [°C] | SMILES |
| --- | --- |
| 57 to 58 | COC(=O)c1ccc2cc(CCC=O)oc2c1 |
| 139 to 143 | CCc1oc2ccccc2c1C(=O)NCc1ccc2c(Br)c(OC(Cc3ccccc3)C(=O)OC)ccc2c1 (stereo not given) |
| 82 to 85 | CCC(CC)Oc1ccc(/C=C/C(=O)Nc2ccccc2C(=O)O)cc1OC |
| 148 to 150 | CCCCc1nn(-c2cc(NC(C)=O)ccc2Cl)c(=O)n1Cc1ccc(-c2cc(CCC)ccc2S(=O)(=O)NC(=O)c2ccccc2F)cc1F |
| 80 to 83 | C[C@H](OC(=O)c1ccccc1)[C@@H](O)[C@@H](CO)OCc1ccccc1Cl |
| > 250 | O=C(Nc1nc(=O)[nH]s1)c1ccc2ccccc2c1 |
| 93 to 95 | O=C(NCCCCCn1cncn1)c1ccc(Br)cc1 |
| 64 to 66 | CCN(CC)CCNC(=O)c1cc(Cl)c2cc(I)ccc2n1 |
| 61 to 62 | CCOC(=O)CCCC(=O)c1ccc(Oc2ccccc2)cc1 |
| 115 | OC1CSC(Oc2cccc3conc23)C(O)C1O (stereo not given) |
| 231 to 233 | COC(=O)C1=C(C)NC(CO)=C(C(=O)OC)C1c1cccc2c(=O)c(C)c(-c3ccccc3)oc12 (stereo not given) |
| 202 to 204 | CC(C(N)=O)n1c(-c2ccc(Cl)cc2)nc2cccnc21 (stereo not given) |
| 101 to 102 | OCc1cnoc1-c1ccc(Cl)c(Cl)c1 |
| 151 to 153 | Cc1nc2c(OCc3ccccc3F)cccn2c1CO |
| 191 to 193 | CSc1ncnc2c1ncn2COC(COC(C)=O)COC(C)=O |
| 121 to 123 | CC(O)(CC(=O)O)c1ccc(-c2ccc(F)cc2F)cc1 (stereo not given) |
| 139 to 141 | CC(=O)CC(=O)N[C@H](CF)[C@H](O)c1ccc(S(C)(=O)=O)cc1 |
| 170 to 171 | COC(=O)CC1=C(C)C(=Cc2ccc(S(N)(=O)=O)cc2)c2ccc(OC)cc21 |
| 200 to 201 | CC(C)n1nc(-c2sc(NC(=O)NCc3ccccc3)nc2-c2ccccc2)ccc1=O |

| melting point [°C] | SMILES |
| --- | --- |
| 148 to 150 | CC(=O)O[C@@H]1OCC[C@@H]1NC(=O)[C@H](CC(C)C)NC(=O)c1ccc(N)cc1 |
| 215 | CCOC(=O)C1=C(C)NC(C)=C(C(=O)OCC)C1c1ccc(OC(C)(C)C(=O)OCC)cc1 |
| 76 to 79 | O=C(NCCCc1ccncc1)N1CCc2ccccc2C1 |
| 198 to 199 | CCCc1nc2c(N)nc3ccccc3c2n1OCC |
| 90 to 92 | Cc1cccc2c1C(NCCSCc1ccc(CN(C)C)o1)=NS2(=O)=O |
| 114 to 116 | CCCC(=O)c1cnc2c(OC)cccc2c1Cl |
| 152 to 159 | CC(=O)Oc1ccc(C(=O)O)cc1Cl |
| 166 to 168 | CCC(=O)N(c1ccncc1)c1c[nH]c2ccccc12 |
| 104 to 107 | COc1ccc(NC(=O)C(Cl)Cl)cn1 |
| 165 to 166 | O=C(O)CS(=O)c1ccc2c(-c3ccccc3F)noc2c1 (stereo not given) |
| 170 to 175 | CCCCCCCCNC1=NS(=O)(=O)c2cc(Cl)cnc2N1 |
| 226 to 227 | N#CCCNC(=O)c1n[nH]cc1NC(=O)c1cccs1 |
| 196 to 197 | Cc1cccc(C(=O)Nc2c[nH]nc2C(=O)NCCCO)n1 |
| 168 to 170 | CCCS(=O)(=O)c1cccnc1S(=O)(=O)NC(=O)Nc1nc(OC)cc(OC)n1 |
| 115 to 116 | CCOC(=O)c1c(O)c2cc(F)ccc2c(=O)n1CC(C)(C)C |
| 92 to 93 | COCCNC(=O)c1cccc(-c2cccc3cc(Cc4cccc(N(C)C)c4)sc23)c1 |
| 145 to 147 | COc1ccc(NCCCCCNC(C)=O)c2c1C(=O)c1ccccc1C2=O |
| 134 to 135 | CCOc1nn(-c2ccc(C(F)(F)F)cn2)cc1CCCOc1cccc(CC(=O)O)c1 |
| 174 to 178 | O=C(NCCO)c1cc(Cl)c(O)c(Cl)c1 |
